Usually IC50 stands for the concentration needed to halve the response being measured.

For the test, the target named is T1, TACE (ADAM17) (Homo sapiens, UniProt P78536).
T1 construct: made in house; host or cells: mammalian cells or insect cells
Description: TACE (ADAM17) inhibition test. The test is classed as biochemical. To be noted: fluorescent synthetic substrate, 37° C. for 1.5 hours; read-out: TACE IC50. From the text: The nucleotide sequence of TACE has been reported by Moss et al. (Moss, M. L. et al., Nature 1997, vol. 385, pp. 733-736). Based on this information, the cDNA of TACE was obtained according to the prescribed method from THP-1 cells or the like, and then incorporated the cDNA into an expression vector. Next, this vector was transformed into mammalian cells or insect cells, and TACE protein was expressed. The TACE protein was isolated, and used as an enzyme. Further, a fluorescent synthetic substrate Nma(N-methylanthranilic acid)-Leu-Ala-Gln-Ala-Val-Arg-Ser-Ser-Lys(Dnp(dinitrophenyl))-D-Arg-NH2 including the TACE-cleaved sequence of a membrane-bound TNF was used as a substrate. The enzyme reaction was carried out by adding 1.8 μL of a solution of the test substance to 90 μL of a fluorescent synthetic substrate prepared with an assay buffer B (50 mM tris-hydrochloric acid buffer (pH 7.5) including 200 mM sodium chloride, 5 mM calcium chloride, 10 μM zinc sulfate, and 0.05% PLURONIC F-68), then mixing 90 μL of a TACE enzyme solution prepared with an assay buffer A (50 mM tris-hydrochloric acid buffer (pH 7.5) including 200 mM sodium chloride, 5 mM calcium chloride, 10 μM zinc sulfate, and 2 mg/mL bovine serum albumin) and reacting at 37° C. for 1.5 hours. Enzyme activity was then determined by measuring with a fluorescence intensity meter (Labsystems, Fluoroskan Ascent) at an excitation wavelength of 355 nm and a measurement wavelength of 460 nm. The 50% inhibitory concentration (IC50) of the test substances was calculated by comparing enzyme activity in the presence and the absence of the test substance to determine the inhibition rate. Further, test substances having an IC50 strength of less than 100 nM were evaluated as “A”, and test substances having an IC50 strength of 100 nM or more were evaluated as “B”.

T1 sequence (P78536 215-824): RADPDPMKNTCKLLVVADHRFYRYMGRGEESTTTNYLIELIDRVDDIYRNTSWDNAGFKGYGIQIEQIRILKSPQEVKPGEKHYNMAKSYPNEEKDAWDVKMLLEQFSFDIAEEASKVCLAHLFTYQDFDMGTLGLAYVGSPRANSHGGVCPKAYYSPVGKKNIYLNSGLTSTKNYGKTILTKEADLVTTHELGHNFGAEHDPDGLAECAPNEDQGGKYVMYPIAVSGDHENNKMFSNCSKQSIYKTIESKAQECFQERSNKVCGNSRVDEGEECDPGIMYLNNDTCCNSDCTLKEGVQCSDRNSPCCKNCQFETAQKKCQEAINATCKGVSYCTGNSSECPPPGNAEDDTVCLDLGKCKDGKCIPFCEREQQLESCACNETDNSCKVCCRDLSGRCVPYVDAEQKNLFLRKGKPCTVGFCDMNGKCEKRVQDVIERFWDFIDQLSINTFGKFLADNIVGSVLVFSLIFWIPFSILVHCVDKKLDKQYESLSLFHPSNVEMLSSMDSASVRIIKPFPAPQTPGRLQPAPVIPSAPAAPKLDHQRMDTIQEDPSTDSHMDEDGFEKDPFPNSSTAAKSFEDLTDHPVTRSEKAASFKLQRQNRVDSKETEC

Regarding `CCOc1ccc(C2(Cn3cccc(C)c3=O)NC(=O)NC2=O)cc1` (racemic) [Compound I-119], the IC50 was under 100 nM.
The value for `Cc1ccc(C2(Cn3cccc(C)c3=O)NC(=O)NC2=O)c(F)c1F` (racemic) [Compound I-128] was under 100 nM; that for `Cc1cccn(CC2(c3ccc(CCC4CCCCC4)cc3)NC(=O)NC2=O)c1=O` (racemic) [Compound I-118] was at least 100 nM.
In the case of `Cc1cccn(CC2(c3ccc(Cl)c(Cl)c3)NC(=O)NC2=O)c1=O` (racemic) [Compound I-125], the IC50 is under 100 nM.
Take `Cc1cccn(CC2(c3ccc(OC4CCCCC4)cc3)NC(=O)NC2=O)c1=O` (racemic) [Compound I-37, 5-[4-(cyclohexyloxy)phenyl]-5-[(3-methyl-2-oxopyridin-1(2H)-yl)methyl]imidazolidine-2,4-dione]: the IC50 was under 100 nM.
In the case of `O=C1NC(=O)C(Cn2cccc(F)c2=O)(c2ccc3ccccc3c2)N1` (racemic) [Compound I-135] it was under 100 nM.
Turning to `Cc1cccn(CC2(c3cccc(F)c3)NC(=O)NC2=O)c1=O` (racemic) [Compound I-28, 5-(3-fluorophenyl)-5-[(3-methyl-2-oxopyridin-1(2H)-yl)methyl]imidazolidine-2,4-dione], the IC50 is under 100 nM.
With `COc1ccccc1Oc1ccc(C2(Cn3cccc(C)c3=O)NC(=O)NC2=O)cc1` (racemic) [Compound I-113], the IC50 is under 100 nM.
With `Cc1cccn(CC2(c3cccc(OC(F)(F)F)c3)NC(=O)NC2=O)c1=O` (racemic) [Compound I-67], the IC50 is under 100 nM.
With `Cc1cccn(CC2(c3ccc(Oc4cccnc4)cc3)NC(=O)NC2=O)c1=O` (racemic) [Compound I-101], the IC50 was under 100 nM.
The value for `COc1ccccc1C1(Cn2cccc(C)c2=O)NC(=O)NC1=O` (racemic) [Compound I-60] was at least 100 nM; that for `COc1ccc(C2(Cn3ccccc3=O)NC(=O)NC2=O)cc1` (racemic) [Compound I-47, 5-(4-methoxyphenyl)-5-[(2-oxopyridin-1(2H)-yl)methyl]imidazolidine-2,4-dione] was under 100 nM.
In the case of `Cc1cccn(CC2(c3ccc(OC4CCCC4)cc3)NC(=O)NC2=O)c1=O` (racemic) [Compound I-124] it was under 100 nM; in that of `Cc1cccn(CC2(c3ccc(C#N)cc3)NC(=O)NC2=O)c1=O` (racemic) [Compound I-3, 4-{4-[(3-methyl-2-oxopyridin-1(2H)-yl)methyl]-2,5-dioxoimidazolidine-4-yl}benzonitrile], under 100 nM.
The value for `O=C1NC(=O)C(Cn2cccc(F)c2=O)(c2ccc(F)c(F)c2)N1` (racemic) [Compound I-145] was under 100 nM; that for `O=C1NC(=O)C(Cn2cccc(Br)c2=O)(c2ccc(Cc3ccccc3)cc2)N1` (racemic) [Compound I-149] was under 100 nM.
Turning to `N#Cc1ccc(C2(Cn3cccc(C(F)(F)F)c3=O)NC(=O)NC2=O)cc1` (racemic) [Compound I-142], the IC50 is under 100 nM.
In the case of `Cc1cccn(CC2(c3ccc(-c4ccc(F)cc4)cc3)NC(=O)NC2=O)c1=O` (racemic) [Compound I-75] it was under 100 nM; in that of `C=C(C)c1ccc(C2(Cn3cccc(C)c3=O)NC(=O)NC2=O)cc1` (racemic) [Compound I-108], under 100 nM; in that of `O=C1NC(=O)C(Cn2cccc(Cl)c2=O)(c2ccccc2)N1` (racemic) [Compound I-50, 5-[(3-chloro-2-oxopyridin-1(2H)-yl)methyl]-5-phenylimidazolidine-2,4-dione], under 100 nM.
In the case of `Cc1cccn(CC2(c3ccc(Oc4ccc(Cl)cc4)cc3)NC(=O)NC2=O)c1=O` (racemic) [Compound I-82] it was under 100 nM; in that of `Cc1cccn(CC2(c3ccc(-c4cccnc4)cc3)NC(=O)NC2=O)c1=O` (racemic) [Compound I-32, 5-[(3-methyl-2-oxopyridin-1(2H)-yl)methyl]-5-[4-(pyridin-3-yl)phenyl]imidazolidine-2,4-dione], under 100 nM; in that of `COc1cc(C)c(Cl)cc1C1(Cn2cccc(C)c2=O)NC(=O)NC1=O` (racemic) [Compound I-70], at least 100 nM.
The value for `Cc1cccn(CC2(c3ccc4c(c3)OCCCO4)NC(=O)NC2=O)c1=O` (racemic) [Compound I-105] was under 100 nM; that for `Cc1cccn(CC2(c3ccccc3)NC(=O)NC2=O)c1=O` (racemic) [Compound I-1, 5-[(3-methyl-2-oxopyridin-1(2H)-yl)methyl]-5-phenyl-imidazolidine-2,4-dione] was under 100 nM; that for `COc1cc(C2(Cn3cccc(C)c3=O)NC(=O)NC2=O)ccc1F` (racemic) [Compound I-12, 5-(4-fluoro-3-methoxyphenyl)-5-[(3-methyl-2-oxopyridin-1(2H)-yl)methyl]imidazolidine-2,4-dione] was under 100 nM.
On to `Cc1cccn(CC2(c3cccc(F)c3F)NC(=O)NC2=O)c1=O` (racemic) [Compound I-153], for which the IC50 is under 100 nM.
The value for `Cc1cccn(CC2(c3cccc(-c4ccccn4)c3)NC(=O)NC2=O)c1=O` (racemic) [Compound I-94] was under 100 nM; that for `Cc1cccn(CC2(c3ccc4ccccc4c3)NC(=O)NC2=O)c1=O` (racemic) [Compound I-56] was under 100 nM; that for `Cc1cc(C2(Cn3cccc(C)c3=O)NC(=O)NC2=O)ccc1OC1CCCC1` (racemic) [Compound I-39, 5-[4-(cyclopentyloxy)-3-methylphenyl]-5-[(3-methyl-2-oxopyridin-1(2H)-yl)methyl]imidazolidine-2,4-dione] was under 100 nM.
The value for `O=C1NC(=O)C(Cn2ccccc2=O)(c2cc(F)c(F)c(F)c2)N1` (racemic) [Compound I-157] was under 100 nM; that for `Cc1cccn(CC2(c3ccc(Oc4ccc(F)cc4)cc3)NC(=O)NC2=O)c1=O` (racemic) [Compound I-85] was under 100 nM; that for `Cc1cccn(CC2(c3cccc(C(F)(F)F)c3)NC(=O)NC2=O)c1=O` (racemic) [Compound I-19] was under 100 nM.
Consider `Cc1cccn(CC2(c3ccc4occc4c3)NC(=O)NC2=O)c1=O` (racemic) [Compound I-22, 5-(benzofuran-5-yl)-5-[(3-methyl-2-oxopyridin-1(2H)-yl)methyl]imidazolidine-2,4-dione], for which the IC50 is under 100 nM.
In the case of `COc1ccc(F)cc1C1(Cn2cccc(C)c2=O)NC(=O)NC1=O` (racemic) [Compound I-69] it was under 100 nM; in that of `Cc1cccn(CC2(c3cccc(-c4ccc(F)cn4)c3)NC(=O)NC2=O)c1=O` (racemic) [Compound I-93], under 100 nM.
In the case of `Cc1cccn(CC2(c3ccc4sccc4c3)NC(=O)NC2=O)c1=O` (racemic) [Compound I-23, 5-(benzo[b]thiophen-5-yl)-5-[(3-methyl-2-oxopyridin-1(2H)-yl)methyl]imidazolidine-2,4-dione] it was under 100 nM.
In the case of `O=C1NC(=O)C(Cn2cccc(F)c2=O)(c2ccc(F)cc2)N1` (racemic) [Compound I-48, 5-[(3-fluoro-2-oxopyridin-1(2H)-yl)methyl]-5-(4-fluorophenyl)-imidazolidine-2,4-dione] it was under 100 nM.
`Cc1cccn(CC2(c3ccc(C#Cc4ccccn4)cc3)NC(=O)NC2=O)c1=O` (racemic) [Compound I-110]: the IC50 is under 100 nM.
In the case of `COc1ccc(C2(Cn3cccc(C)c3=O)NC(=O)NC2=O)c(OC)c1` (racemic) [Compound I-18, 5-(2,4-dimethoxyphenyl)-5-[(3-methyl-2-oxopyridin-1(2H)-yl)methyl]imidazolidine-2,4-dione], the IC50 is under 100 nM.
In the case of `Cc1cccn(CC2(c3ccc(-c4ccccn4)cc3)NC(=O)NC2=O)c1=O` (racemic) [Compound I-92] it was under 100 nM.
As for `COc1ccc(C2(Cn3cccc(C)c3=O)NC(=O)NC2=O)cc1F` (racemic) [Compound I-14, 5-(3-fluoro-4-methoxyphenyl)-5-[(3-methyl-2-oxopyridin-1(2H)-yl)methyl]imidazolidine-2,4-dione], the IC50 was under 100 nM.
In the case of `COc1ccc(C2(Cn3cccc(F)c3=O)NC(=O)NC2=O)cc1` (racemic) [Compound I-133] it was under 100 nM; in that of `COc1ccc(OC)c(C2(Cn3cccc(C)c3=O)NC(=O)NC2=O)c1` (racemic) [Compound I-20, 5-(2,5-dimethoxyphenyl)-5-[(3-methyl-2-oxopyridin-1(2H)-yl)methyl]imidazolidine-2,4-dione], under 100 nM.
The value for `COc1cccc(-c2ccc(C3(Cn4cccc(C)c4=O)NC(=O)NC3=O)cc2)c1` (racemic) [Compound I-73] was under 100 nM; that for `Cc1cccn(CC2(c3ccc(Oc4cccnc4)c(F)c3)NC(=O)NC2=O)c1=O` (racemic) [Compound I-122] was under 100 nM.
In the case of `COc1ccc(Oc2ccc(C3(Cn4cccc(C)c4=O)NC(=O)NC3=O)cc2)cc1` (racemic) [Compound I-81] it was under 100 nM.

(Values after patent US20160168540A1, “COMPOSITION FOR MAINTAINING PLATELET FUNCTION” (KYOTO UNIVERSITY, priority 2013, published 2016).)
